From patent publication US7728146B2, “Enzyme inhibitors” (Probiodrug AG, priority 2006, dated 2010)

target: DP IV (Homo sapiens, UniProt P27487); test: DP IV inhibition IC50, parallel-synthesis compounds tested directly following synthesis (without purification); format: biochemical; design: IC50 DP4; other: tested directly following parallel synthesis, without purification; compounds of formula (Ib) from parallel synthesis, tested directly following synthesis; settings: DP IV inhibition; compounds of formula (Ib) from parallel synthesis, tested directly following synthesis (without purification); read-out: IC50
Protocol: Compounds were immediately tested regarding their activity as DP IV inhibitors.
Substances are screened for inhibition of dipeptidyl peptidase (DP IV) by their ability to inhibit the hydrolysis of the DP IV specific substrate Glycyl-Prolyl-4-Nitroanilide (Gly-Pro-pNA). All compounds are diluted in DMSO and IC50 will be determined with 11 serial dilutions (1:2) starting with an final concentration of 100 μM. The final DMSO concentration in the assay is 5% (v/v). The method was automated using a Tecan Genesis Freedom liquid handler and a Genius Pro (Tecan) microplate reader.
DP IV from porcine kidney (pDP IV) or recombinant human DP IV (rhDP IV) is diluted in HEPES buffer to a final activity of approximately 40-50 μU*ml^−1. The DP IV is stored in a cooling rack (4° C.) on the liquid handler.
The assay may becarried out at room temperature using Freedom liquid handler connected with a Genios Pro microplate reader. Each sample is measured in duplicate. Each sample stock solution is prediluted with DMSO in a ratio of 1:5 in a polypropylen 96-well plate. From this predilution 10 serial (1:2) dilutions in DMSO are prepared. 13.5 μl of the 11 DMSO dilutions and DMSO alone are transferred to the measurement microplate (duplicates) and 86.5 μl water, 100 μl HEPES buffer and 50 μl substrate solution are added to each well. The enzymatic reaction is started by addition of 20 μl enzyme solution to each well, and then the microplate is immediately transferred to the microplate reader.
After short mixing (20 s) the release of 4-Nitroanilin (pNA) is monitored at 405 nm for 30 cycles (approx. 18 min).
Post assay calculations are done by the Magellan (Tecan) and Graphit Software. The linear slopes are calculated for each well and averaged for the duplicates. The residue activities are calculated in relation to a sample containing only solvent instead of inhibitor and expressed in %. Residue activities are plotted against the log of inhibitor concentrations and IC50 is calculated by an 4-parameter fitting ranging from 0 to 100%.

Compared with C[C@H](N)c1c(-c2ccc(Cl)cc2Cl)ncn1CCc1c[nH]c2cc(F)ccc12 [110b, (S)-1-{5-(2,4-Dichloro-phenyl)-3-[2-(6-fluoro-1H-indol-3-yl)-ethyl]-3H-imidazol-4-yl}-ethylamine], NCc1c(-c2ccc(Cl)cc2Cl)ncn1CCc1c[nH]c2cc(F)ccc12 [114b, C-{5-(2,4-Dichloro-phenyl)-3-[2-(6-fluoro-1H-indol-3-yl)-ethyl]-3H-imidazol-4-yl}-methylamine] is 11-fold lower in IC50: 42.4 µM for the first, 3.7 µM for the second. The second is the more potent here.

Going from C[C@H](N)c1c(-c2ccc(Cl)cc2Cl)ncn1CCNc1ccc([N+](=O)[O-])cn1 [111b, {2-[5-((S)-1-Amino-ethyl)-4-(2,4-dichloro-phenyl)-imidazol-1-yl]-ethyl}-(5-nitro-pyridin-2-yl)-amine] to NCCCc1c(-c2ccc(Cl)cc2Cl)ncn1CCNc1ccc([N+](=O)[O-])cn1 [74b, {2-[5-(3-Amino-propyl)-4-(2,4-dichloro-phenyl)-imidazol-1-yl]-ethyl}-(5-nitro-pyridin-2-yl)-amine], the IC50 falls from 21.7 µM to 12.7 µM (1.7-fold).

Compared with CC(C)N(CCn1cnc(-c2ccc(Cl)cc2Cl)c1CN)C(C)C [6b, {2-[5-Aminomethyl-4-(2,4-dichloro-phenyl)-imidazol-1-yl]-ethyl}-diisopropyl-amine], CC(O)Cn1cnc(-c2ccc(Cl)cc2Cl)c1CN (stereo not shown) [72b, 1-[5-Aminomethyl-4-(2,4-dichloro-phenyl)-imidazol-1-yl]-propan-2-ol] is 1.9-fold higher in IC50: 10.9 µM for the first, 20.8 µM for the second. The first is the more potent here.

Compared with NCc1c(-c2ccc(Cl)cc2Cl)ncn1CCc1ccc(Cl)cc1Cl [Example 32b, C-{5-(2,4-dichloro-phenyl)-3-[2-(2,4-dichloro-phenyl)-ethyl]-3H-imidazol-4-yl}-methylamine], NCc1c(-c2ccc(Cl)cc2Cl)ncn1Cc1ccc(Cl)c(Cl)c1 [77b, C-[3-(3,4-Dichloro-benzyl)-5-(2,4-dichloro-phenyl)-3H-imidazol-4-yl]-methylamine] is 2.1-fold lower in IC50: 15.4 µM for the first, 7.3 µM for the second.

CC(C)CCn1cnc(-c2ccc(Cl)cc2Cl)c1C(C)N (stereo not shown) [44b, 1-[5-(2,4-Dichloro-phenyl)-3-(3-methyl-butyl)-3H-imidazol-4-yl]-ethylamine] and C[C@H](N)c1c(-c2ccc(Cl)cc2Cl)ncn1CCc1c[nH]c2ccccc12 [103b, (S)-1-{5-(2,4-Dichloro-phenyl)-3-[2-(1H-indol-3-yl)-ethyl]-3H-imidazol-4-yl}-ethylamine] are within 1.5-fold of each other in IC50: 40.6 µM for the first, 44.2 µM for the second.

Going from NCc1c(-c2ccc(Cl)cc2Cl)ncn1CCc1ccc(O)cc1 [113b, 4-{2-[5-Aminomethyl-4-(2,4-dichloro-phenyl)-imidazol-1-yl]-ethyl}-phenol] to NCc1c(-c2ccc(Cl)cc2Cl)ncn1CCc1ccccc1 [57b, C-[5-(2,4-Dichloro-phenyl)-3-phenethyl-3H-imidazol-4-yl]-methylamine], the IC50 falls from 21.7 µM to 9.1 µM (2.4-fold). The second is the more potent here.

NCc1c(-c2ccc(Cl)cc2Cl)ncn1Cc1cccc(C(F)(F)F)c1 [89b, C-[5-(2,4-Dichloro-phenyl)-3-(3-trifluoromethyl-benzyl)-3H-imidazol-4-yl]-methylamine] and NCc1c(-c2ccc(Cl)cc2Cl)ncn1Cc1cccc(F)c1 [Example 28b, C-[5-(2,4-dichloro-phenyl)-3-(3-fluoro-benzyl)-3H-imidazol-4-yl]-methylamine] are the same in IC50: 1.9 µM for the first, 1.9 µM for the second.

Going from NCCc1c(-c2ccc(Cl)cc2Cl)ncn1CCc1cccc(Cl)c1 [37b, 2-[3-[2-(3-Chloro-phenyl)-ethyl]-5-(2,4-dichloro-phenyl)-3H-imidazol-4-yl]-ethylamine] to NCCCc1c(-c2ccc(Cl)cc2Cl)ncn1Cc1cc(Br)ccc1F [30b, 3-[3-(5-Bromo-2-fluoro-benzyl)-5-(2,4-dichloro-phenyl)-3H-imidazol-4-yl]-propylamine], the IC50 falls from 48.7 µM to 17.2 µM (2.8-fold).

First: NCc1c(-c2ccc(Cl)cc2Cl)ncn1Cc1cc(F)cc(C(F)(F)F)c1 [3b, C-[5-(2,4-Dichloro-phenyl)-3-(3-fluoro-5-trifluoromethyl-benzyl)-3H-imidazol-4-yl]-methylamine]
Second: Cc1ccccc1Cn1cnc(-c2ccc(Cl)cc2Cl)c1CN [Example 33b, C-[5-(2,4-dichloro-phenyl)-3-(2-methyl-benzyl)-3H-imidazol-4-yl]-methylamine]
The IC50 of the first is 1.6-fold lower: 2.8 µM for the first, 4.6 µM for the second.

NCc1c(-c2ccc(Cl)cc2Cl)ncn1CC(c1ccccc1)c1ccccc1 [31b, C-[5-(2,4-Dichloro-phenyl)-3-(2,2-diphenyl-ethyl)-3H-imidazol-4-yl]-methylamine] and NCc1c(-c2ccc(Cl)cc2Cl)ncn1CCCNC1CCCCC1 [19b, {3-[5-Aminomethyl-4-(2,4-dichloro-phenyl)-imidazol-1-yl]-propyl}-cyclohexyl-amine] are the same in IC50: 45.1 µM for the first, 45.1 µM for the second.

same assay, conditions: tested directly following parallel synthesis, without purification; read-out: IC50 DP4

NCc1c(-c2ccc(F)cc2Cl)ncn1Cc1cc(Br)ccc1F [Example 12a, C-[3-(5-Bromo-2-fluoro-benzyl)-5-(2-chloro-4-fluoro-phenyl)-3H-imid-azol-4-yl]-methyl-amine] and NCc1c(-c2ccc(F)cc2Cl)ncn1Cc1cc(F)ccc1F [Example 27a, C-[5-(2-Chloro-4-fluoro-phenyl)-3-(2,5-difluoro-benzyl)-3H-imid-azol-4-yl]-methyl-amine] are within 1.5-fold of each other in IC50: 32.5 µM for the first, 22.6 µM for the second.

First: NCc1c(-c2ccc(Cl)cc2Cl)ncn1Cc1cccc(F)c1 [Example 42a, C-[5-(2,4-Dichloro-phenyl)-3-(3-fluoro-benzyl)-3H-imid-azol-4-yl]-methyl-amine]
Second: COc1cccc(Cn2cnc(-c3ccc(Cl)cc3Cl)c2CN)c1 [Example 41a, C-[5-(2,4-Dichloro-phenyl)-3-(3-methoxy-benzyl)-3H-imid-azol-4-yl]-methyl-amine]
The IC50 of the first is 10-fold higher: 1 µM for the first, 0.1 µM for the second. The second is the more potent here.

NCc1c(-c2ccc(F)cc2Cl)ncn1Cc1cccc(C(F)(F)F)c1 [Example 6a, C-[5-(2-Chloro-4-fluoro-phenyl)-3-(3-tri-fluoromethyl-benzyl)-3H-imid-azol-4-yl]-methyl-amine] and COc1cccc(Cn2cnc(-c3ccc(F)cc3Cl)c2CN)c1 [Example 9a, C-[5-(2-Chloro-4-fluoro-phenyl)-3-(3-methoxy-benzyl)-3H-imid-azol-4-yl]-methyl-amine] are within 1.5-fold of each other in IC50: 17.2 µM for the first, 16.3 µM for the second.

Going from NCc1c(-c2ccc(Cl)cc2Cl)ncn1Cc1ccc(F)cc1F [Example 39a, C-[5-(2,4-Dichloro-phenyl)-3-(2,4-difluoro-benzyl)-3H-imid-azol-4-yl]-methyl-amine] to NCc1c(-c2ccc(Cl)cc2Cl)ncn1Cc1ccccc1F [Example 62a, C-[5-(2,4-Dichloro-phenyl)-3-(2-fluoro-benzyl)-3H-imid-azol-4-yl]-methyl-amine], the IC50 falls from 1 µM to 0.1 µM (10-fold).

First: NCc1c(-c2ccc(F)cc2Cl)ncn1Cc1cccc(Cl)c1Cl [Example 20a, C-[5-(2-Chloro-4-fluoro-phenyl)-3-(2,3-di-chloro-benzyl)-3H-imid-azol-4-yl]-meth-ylamine]
Second: NCc1c(-c2ccc(F)cc2Cl)ncn1Cc1ccccc1F [Example 28a, C-[5-(2-Chloro-4-fluoro-phenyl)-3-(2-fluoro-benzyl)-3H-imid-azol-4-yl]-methyl-amine]
The IC50 of the first is 1.8-fold higher: 34.3 µM for the first, 19 µM for the second.

NCc1c(-c2ccc(F)cc2Cl)ncn1Cc1cccs1 [Example 1a, C-[5-(2-Chloro-4-fluoro-phenyl)-3-thio-phen-2-yl-methyl-3H-imid-azol-4-yl]-methyl-amine] and NCc1c(-c2ccc(F)cc2Cl)ncn1Cc1ccc(F)cc1 [Example 5a, C-[5-(2-Chloro-4-fluoro-phenyl)-3-(4-fluoro-benzyl)-3H-imid-azol-4-yl]-methyl-amine] are within 1.5-fold of each other in IC50: 11.8 µM for the first, 10.9 µM for the second.

Going from Cc1ccccc1Cn1cnc(-c2ccc(Cl)cc2Cl)c1CN [Example 46a, C-[5-(2,4-Dichloro-phenyl)-3-(2-methyl-benzyl)-3H-imid-azol-4-yl]-methyl-amine] to CCOc1ccccc1Cn1cnc(-c2ccc(C)cc2C)c1CN [Example 70a, C-[5-(2,4-Dimethyl-phenyl)-3-(2-ethoxy-benzyl)-3H-imid-azol-4-yl]-methyl-amine], the IC50 rises from 1 µM to 16.3 µM (16-fold). The first is the more potent here.

NCc1c(-c2ccc(F)cc2Cl)ncn1Cc1ccc2c(c1)OCO2 [Example 16a, C-[3-Ben-zo[1,3]di-oxol-5-yl-methyl-5-(2-chlo-ro-4-fluoro-phenyl)-3H-imid-azol-4-yl]-methyl-amine] and NCc1c(-c2ccc(F)cc2F)ncn1Cc1ccc(F)cc1Cl [Example 87a, C-[3-(2-Chloro-4-fluoro-benzyl)-5-(2,4-difluoro-phenyl)-3H-imid-azol-4-yl]-methyl-amine] are within 1.5-fold of each other in IC50: 28 µM for the first, 25.3 µM for the second.

Compound NCc1c(-c2ccc(F)cc2F)ncn1Cc1ccccn1 [Example 88a, C-[5-(2,4-Difluoro-phenyl)-3-pyri-din-2-yl-methyl-3H-imid-azol-4-yl]-methyl-amine] has an IC50 of 29.8 µM.
